PMC11415492 (Nature Communications, 2024)
Several values for one entry are separate records, joined by “and”; a condition that tells them apart may be missing. Equal values may be shown once. Entries after “also recorded” stand apart in the source; their conditions may differ. Where a name gives a salt, the structure may show the parent alone.

Columns and labels:
male Fisher F-344 rats = details: preclinical assays in rats; cited from earlier work
mice = assay: Open field test (locomotion, sedation); assay type: in vivo, mouse; parameters: unit not given here; details: groups not marked Female
Description: Mice were transferred to the testing room 30 min before the experiment to allow for acclimation. Body weight of each mouse was recorded. For experiments with antagonist, pre-treatment, the dosing and after application wait times were the same as for the tail-flick test. Mice were administered an ED50, ED80 or >ED95 doses of test compound (volume of injection 290–350 µL based on body weight). After injection, mice were returned to the home cage and allowed to rest for 30 min. Each mouse was then gently placed in the center of a clear Plexiglas arena (27.31 × 27.31 × 20.32 cm, Med Associates ENV-510) lit with dim light ( ~ 5 lux) and allowed to ambulate freely for 60 minutes. The locomotion of the mouse was tracked by infrared beams embedded along the X, Y, Z axes of the area and automatically recorded. Data was collected on Activity Monitor by Med Associates.
Statistical analysis was performed using the unpaired t-test, two-tailed with Welch’s correction to analyze total locomotion and a two-way ANOVA with Šidák’s multiple comparison test for post hoc comparison to analyze locomotion across time bins.

hSERT = molecular target: T1, hSERT (Homo sapiens, UniProt P31645); assay: hSERT inhibition assay (APP+ fluorescence uptake); assay type: cell-based
T1 construct: expressed in transfected cells
T1 sequence (P31645 whole entry): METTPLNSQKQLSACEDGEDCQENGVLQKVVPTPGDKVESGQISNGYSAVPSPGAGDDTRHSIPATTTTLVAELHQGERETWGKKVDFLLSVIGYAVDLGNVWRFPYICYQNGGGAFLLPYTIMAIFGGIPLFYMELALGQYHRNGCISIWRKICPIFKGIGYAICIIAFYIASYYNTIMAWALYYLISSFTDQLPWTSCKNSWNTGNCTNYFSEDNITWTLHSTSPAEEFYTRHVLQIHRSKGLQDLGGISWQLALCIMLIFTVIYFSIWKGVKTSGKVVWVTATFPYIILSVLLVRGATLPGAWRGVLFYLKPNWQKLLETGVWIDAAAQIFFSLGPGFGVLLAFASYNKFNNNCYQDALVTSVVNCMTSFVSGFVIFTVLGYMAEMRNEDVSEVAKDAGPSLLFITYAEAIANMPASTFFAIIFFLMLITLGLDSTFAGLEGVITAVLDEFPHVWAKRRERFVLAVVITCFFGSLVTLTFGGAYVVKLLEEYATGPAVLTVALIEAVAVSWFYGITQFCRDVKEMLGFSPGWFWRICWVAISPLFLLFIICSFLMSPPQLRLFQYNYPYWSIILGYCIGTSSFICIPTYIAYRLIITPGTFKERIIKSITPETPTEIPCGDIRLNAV
Description: Stably transfected hSERT-HEK cellular cultures were maintained in Dulbecco’s Minimal Essential Medium (DMEM) with GlutaMAX (Gibco-Thermo Fisher Scientific, Waltham, MA) with the following additions: 10% (v/v) Fetal Bovine Serum (FBS, Atlanta Biologicals, Flowery Branch, GA), 100 U/mL Penicillin 10 μg/mL Streptomycin (Gibco-Thermo Fisher Scientific, Waltham, MA), and 500 μg/mL Geneticin (G418) (Sigma Aldrich, St. Louis, MO). Singly transfected cells were seeded at a density of 0.09 × 10^6 cells/well in poly-D-Lysine (Sigma Aldrich, St. Louis, MO) coated white solid-bottom 96-well plates (Greiner Bio-One, Kremsmünster, Austria). Cells were grown for 44 h in aqueous media at 37 °C under 5% CO2 atmosphere. […] A final solution of 120 μL of PBS was finally added to all corresponding wells for cell maintenance before measuring fluorescence uptake (BioTek H1MF plate reader (BioTek Instruments, Winooski, VT), APP+ excitation and emission wavelengths 436 and 500 nm). Recorded inhibitor values were first subtracted from vehicular values to quantify the respective fluorescence uptake. Data were analyzed using the dose-response-inhibitor nonlinear curve fitting model (log[inhibitor] vs response (four parameters) in Graphpad Prism 10 (Graphpad Software, La Jolla, CA).

monkeys = details: daily dosing prior to SA sessions (14 days); cited from earlier work
hKOR [1] = molecular target: T2, hKOR (Homo sapiens, UniProt P41145); assay: KOR [35S]GTPγS agonist assay (commercial); assay type: biochemical; details: Log [Drug]
T2 construct: expressed in transfected cells; host or cells: HEK-293T, transient (PEI)
T2 sequence (P41145 whole entry): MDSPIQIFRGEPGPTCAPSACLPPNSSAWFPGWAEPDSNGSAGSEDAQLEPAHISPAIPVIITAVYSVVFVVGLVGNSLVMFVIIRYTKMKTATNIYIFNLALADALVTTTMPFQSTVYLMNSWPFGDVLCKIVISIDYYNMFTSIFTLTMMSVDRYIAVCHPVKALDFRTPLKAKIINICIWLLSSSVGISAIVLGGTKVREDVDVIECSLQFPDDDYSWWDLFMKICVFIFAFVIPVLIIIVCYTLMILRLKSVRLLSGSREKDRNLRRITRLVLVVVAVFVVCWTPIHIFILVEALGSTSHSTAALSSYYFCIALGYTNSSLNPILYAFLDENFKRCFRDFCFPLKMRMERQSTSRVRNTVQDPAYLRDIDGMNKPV

male rats = details: cited from earlier work
GDNF = GDNF expression studies (ELISA, brain regions); assay type: in vivo, rat; details: aticaprant 1 mg/kg s.c. before oxa-noribogaine 40 mg/kg i.p.
Description: One day or five days after drug administration, rats from these groups as well as non-treated controls were decapitated, brains removed and placed in a stainless-steel rat brain matrix. Coronal slices were taken and the ventral tegmental area (VTA), nucleus accumbens (NAc) and medial prefrontal cortex (mPFC) were dissected and immediately frozen on dry ice. Total protein was isolated from pulverized tissue (8–15 mg tissue per region was harvested from one subject) from these regions. GDNF contents were assayed using the BiosSensis GDNF, Rat, Rapid™ ELISA assay (Biosensis Pty Ltd, SA, Australia). Protease (Thermo Scientific, Rockford, IL), and phosphatase inhibitors (Cocktails 1 and 2, Sigma-Aldrich, St. Louis, MO) were added to the extraction buffers. Regardless of sample weight 230uL of RIPA buffer (Sigma; R0278) was added into each sample along with protease inhibitors. […] Protein concentrations were measured using the bicinchoninic acid protein assay kit (Pierce, Rockford, IL, USA) on a spectrophotometer (iD5, Molecular Devices, Sunnyvale, CA). […] In a separate cohort, we assessed the ability of the kappa antagonist aticaprant to attenuate the oxa-noribogaine induced increase in GDNF in the VTA and mPFC five days after administration. […] Data were analyzed by protein and region using one way ANOVA with Tukey’s multiple comparison test for post hoc comparison.

hKOR [2] = molecular target: T2, hKOR; assay: G protein activation BRET assay; assay type: cell-based; details: for EC50: HEK-293T, (95% CI); for % effect at 100 µM: n = 4

COCC[C@H]1CC2CN3CCc4c([nH]c5ccccc45)[C@](C(=O)OC)(C2)[C@H]13 [18MC, 18-methoxycoronaridine]
effect on morphine intake (male Fisher F-344 rats): efficacy and duration of effect on morphine intake comparable to ibogaine and noribogaine

Cc1cc(C)cc([C@@H]2CCCN2Cc2ccc(Oc3ccc(C(N)=O)cc3F)cc2)c1 [Aticaprant (ATI)]
Open field total locomotion, individual animals (Fig. 3h source data) (mice): 98.5549 and 70.7237 and 76.3275 and 70.7309 and 115.865 and 89.5078 and 98.6683 and 78.3135

CN(C)CCCN1c2ccccc2CCc2ccccc21 [Imipramine, imipramine hydrochloride]
Emax (hSERT): 100%

C[C@H]1CNCCc2ccc(Cl)cc21 [Lorcaserin, lorcaserin]
suppression of cocaine SA (monkeys): the suppression effect completely dissipated as soon as the treatment ended

CC[C@H]1C[C@H]2C[C@H]3c4[nH]c5ccc(O)cc5c4CCN(C2)[C@@H]13 [NORIBO]
response, Fig. S5a concentration-response point (hKOR [1]; M = -4): 66 | response, Fig. S5a concentration-response point (hKOR [1]; M = -4.5): 55 | response, Fig. S5a concentration-response point (hKOR [1]; M = -5): 39 | response, Fig. S5a concentration-response point (hKOR [1]; M = -5.5): 20 | response, Fig. S5a concentration-response point (hKOR [1]; M = -6): 7 | response, Fig. S5a concentration-response point (hKOR [1]; M = -6.5): 2

COc1ccc2c3c([nH]c2c1)CCN(C)CC3 [TBG]
effect on heroin SA (male rats): no lasting effect on heroin SA

Cc1cc(C)cc([C@@H]2CCCN2Cc2ccc(Oc3ccc(C(N)=O)cc3F)cc2)c1 [aticaprant]
effect of pre-treatment on oxa-noribogaine-induced GDNF increase (GDNF): the induction of GDNF was blocked in both mPFC and VTA; also recorded: prevents the increase of GDNF expression in mPFC and VTA

Epi-oxa-ibogamine
EC50 (hKOR [2]): > 10 µM | % effect at 100 µM (hKOR [2]): 46%

Oxa-ibogamine
EC50 (hKOR [2]): > 10 µM | % effect at 100 µM (hKOR [2]): 56%
